This assay concerns the target T1, Fc tagged recombinant human EGFR (rhEGFR-Fc) (Homo sapiens, UniProt P00533).
T1 construct: purchased R&D Systems 344-ER-050
The format is binding. The following applies: for KD: Table 6, TGF fragments; for Result: Table 14, relative affinity compared to KD of parent P2 (FIG. 16); for KD/P2 KD: Table 13, point mutations. How it is done:
Surface plasmon resonance (SPR) binding studies were carried out on a Biacore T200 instrument (GE Healthcare). Approximately 10,000 RU of anti-Fc antibody (GE Healthcare, Cat #BR100839) was immobilized via amine coupling on each of flow cells 1 and 2 of a CM5 dextran-coated gold sensor chip (GE Healthcare, Cat #BR100530). […] The contact time and resulting amount of rhEGFR-Fc capture was varied based on the nature of the analyte, namely whether it was a peptide or nanoparticle.
Peptide binding assays were carried out in 10 mM PBS buffer supplemented with 0.05% surfactant P20 and 5% DMSO by volume, at 25° C. Peptides were injected over the rhEGFR-Fc surface for 60 s, followed by dissociation (buffer injection) for 60 s and regeneration with a 10 s pulse of 3M MgCl2. A fresh rhEGFR-Fc surface was generated for each concentration of each peptide tested. Peptide binding data was analyzed by fitting to a 1:1 Langmuir kinetic model to obtain the on-rate (ka), off-rate (kd) and/or equilibrium binding constant (KD) of the interaction.

*1 amine or outer side, *2 acyl side, *3 side chain or, on linkers, in order; H or OH if unused. Where a SMILES comes first, the peptide text is derived from it. Bridges are numbered along the chain shown (N, C = ends). Where no end group is shown, it is not given here. Side-chain parts run from the residue outwards. [ ]: non-standard residue; d: D form. The star is where a group is joined. Trp(5-OMe) = COc1ccc2[nH]cc(C[C@H](N)C(=O)O)c2c1; DBCO = C1#Cc2ccccc2N(*)Cc2ccccc21; Igl = N[C@H](C(=O)O)C1Cc2ccccc2C1; PEG5 = NCCOCCOCCOCCOCCOCCC(=O)O; Suc = O=C(CCC(=O)[*:2])[*:1]; Orn = NCCC[C@H](N)C(=O)O; Pra = C#CC[C@H](N)C(=O)O; Dap = NC[C@H](N)C(=O)O; Acm = CC(=O)NC*

For the compound `C#CC[C@H](NC(=O)CN)C(=O)NCC(=O)NCC(=O)N[C@@H](C)C(=O)N[C@@H](CCCNC(=N)N)C(=O)N[C@@H](CS)C(=O)N[C@@H](CCC(=O)O)C(=O)N[C@@H](Cc1c[nH]cn1)C(=O)N[C@@H](C)C(=O)N[C@@H](CC(=O)O)C(=O)N[C@@H](C)C(=O)N[C@@H](CC(=O)O)C(=O)N[C@@H](CC(C)C)C(N)=O` [TGFf-5] (H-G[Pra]GGARCEHADADL-NH2), the KD entry is recorded as “No binding”.

Consider “P2-8: P2 alanine scan analog, alanine at position 8 (DPCTWEVAGRECLQ; disulfide 3-12 (inferred); not fully specified (N-terminus, C-terminus)) [Peptide P2-8]”, for which, under “Table 11, P2 Ala scan”, the “KD (μM)” value was “nb”. In addition, for the setting “Table 11, relative to the KD of parent P2”, the “Relative Affinity” value is “nb”.

As to `C#CC[C@H](NC(=O)CN)C(=O)NCC(=O)NCC(=O)N[C@@H](CS)C(=O)N[C@@H](CCCNC(=N)N)C(=O)N[C@@H](Cc1ccccc1)C(=O)N[C@@H](CC(C)C)C(=O)N[C@H](C(=O)N[C@@H](CCC(N)=O)C(=O)N[C@@H](CCC(=O)O)C(=O)N[C@@H](CC(=O)O)C(=O)N[C@@H](CCCCN)C(=O)N1CCC[C@H]1C(N)=O)C(C)C` [TGFf-9] (H-G[Pra]GGCRFLVQEDKP-NH2), the KD result is “No binding”.

On to `C#CC[C@H](NC(=O)CN)C(=O)NCC(=O)NCC(=O)N[C@@H](CC(N)=O)C(=O)N[C@@H](CC(=O)O)C(=O)N[C@@H](CS)C(=O)N1CCC[C@H]1C(=O)N[C@@H](CC(=O)O)C(=O)N[C@@H](CO)C(=O)N[C@@H](Cc1c[nH]cn1)C(=O)N[C@H](C(=O)N[C@@H](CCC(N)=O)C(=O)N[C@@H](Cc1ccccc1)C(N)=O)[C@@H](C)O` [TGFf-12] (H-G[Pra]GGNDCPDSHTQF-NH2), for which the KD entry was “No binding”.

For “H2N-GDPETWEVWGRE-Dap-LQ-GG-Par-G-CONH2 (H-GDPETWEVWGRE[Dap]LQGG[Pra]G-NH2; lactam 4-13) [Peptide P2-69]”, the Result result is on record as “No binding”.

Take “H2N-GDP-Orn-TWEVWGREDLQ-GG-Par-G-CONH2 (H-GDP[Orn]TWEVWGREDLQGG[Pra]G-NH2; lactam 4-13; SMILES C#CC[C@H](NC(=O)CNC(=O)CNC(=O)[C@H](CCC(N)=O)NC(=O)[C@H](CC(C)C)NC(=O)[C@@H]1CC(=O)NCCC[C@H](NC(=O)[C@@H]2CCCN2C(=O)[C@H](CC(=O)O)NC(=O)CN)C(=O)N[C@@H]([C@@H](C)O)C(=O)N[C@@H](Cc2c[nH]c3ccccc23)C(=O)N[C@@H](CCC(=O)O)C(=O)N[C@@H](C(C)C)C(=O)N[C@@H](Cc2c[nH]c3ccccc23)C(=O)NCC(=O)N[C@@H](CCCNC(=N)N)C(=O)N[C@@H](CCC(=O)O)C(=O)N1)C(=O)NCC(N)=O) [Peptide P2-58]”: the Result result is “No binding”.

As to `C#CC[C@H](NC(=O)CN)C(=O)NCC(=O)NCC(=O)N[C@@H](CO)C(=O)N[C@@H](Cc1c[nH]cn1)C(=O)N[C@H](C(=O)N[C@@H](CCC(N)=O)C(=O)N[C@@H](Cc1ccccc1)C(=O)N[C@@H](CS)C(=O)N[C@@H](Cc1ccccc1)C(=O)N[C@@H](Cc1c[nH]cn1)C(=O)NCC(=O)N[C@H](C(N)=O)[C@@H](C)O)[C@@H](C)O` [TGFf-11] (H-G[Pra]GGSHTQFCFHGT-NH2), the KD result is given as “No binding”.

For the compound `C#CC[C@H](NC(=O)CN)C(=O)NCC(=O)NCC(=O)N[C@@H](C)C(=O)N[C@@H](CCCNC(=N)N)C(=O)N[C@@H](CS)C(=O)N[C@@H](Cc1c[nH]cn1)C(=O)N[C@@H](CCC(=O)O)C(=O)N[C@@H](Cc1c[nH]cn1)C(=O)N[C@@H](C)C(=O)N[C@@H](CC(=O)O)C(=O)N[C@@H](CC(C)C)C(=O)N[C@@H](CC(C)C)C(=O)N[C@@H](C)C(N)=O` [TGFf-14] (H-G[Pra]GGARCHEHADLLA-NH2), the KD result is listed as “No binding”.

With `CC(=O)N[C@@H](CC(=O)O)C(=O)N1CCC[C@H]1C(=O)N[C@@H]1C(=O)N[C@@H]([C@@H](C)O)C(=O)N[C@@H](Cc2c[nH]c3ccccc23)C(=O)N[C@@H](CCC(=O)O)C(=O)N[C@@H](C(C)C)C(=O)N[C@@H](Cc2c[nH]c3ccccc23)C(=O)NCC(=O)N[C@@H](CCCNC(=N)N)C(=O)N[C@@H](CCC(=O)O)C(=O)N[C@H](C(=O)N[C@@H](CC(C)C)C(=O)N[C@@H](CCC(N)=O)C(=O)NCC(=O)NCC(=O)N[C@@H](CCCCNC(=O)CCOCCOCCOCCOCCOCCNC(=O)CCC(=O)N2Cc3ccccc3C#Cc3ccccc32)C(N)=O)C(C)(C)SSC1(C)C` [Peptide P2-55], the “binding of free peptide to EGFR by SPR, in words” value was “improved affinity relative to the parent peptide” and the Result came out at 1.18.

For `C#CC[C@H](NC(=O)CNC(=O)CNC(=O)[C@H](CCC(N)=O)NC(=O)[C@H](CC(C)C)NC(=O)[C@@H]1CSSC[C@H](NC(=O)[C@@H]2CCCN2C(=O)[C@@H](N)CC(=O)O)C(=O)N[C@@H]([C@@H](C)O)C(=O)N[C@@H](Cc2ccccc2)C(=O)N[C@@H](CCC(=O)O)C(=O)N[C@@H](C(C)C)C(=O)N[C@@H](Cc2c[nH]c3ccccc23)C(=O)NCC(=O)N[C@@H](CCCNC(=N)N)C(=O)N[C@@H](CCC(=O)O)C(=O)N1)C(=O)NCC(N)=O` [Peptide P2-29] (H-DPCTFEVWGRECLQGG[Pra]G-NH2; disulfide 3-12), the “KD/P2 KD” value is 9.24.

As for “H2N-GDPDTWEVWGREKLQ-GG-Par-G-CONH2 (H-GDPDTWEVWGREKLQGG[Pra]G-NH2; lactam 4-13; SMILES C#CC[C@H](NC(=O)CNC(=O)CNC(=O)[C@H](CCC(N)=O)NC(=O)[C@H](CC(C)C)NC(=O)[C@@H]1CCCCNC(=O)C[C@H](NC(=O)[C@@H]2CCCN2C(=O)[C@H](CC(=O)O)NC(=O)CN)C(=O)N[C@@H]([C@@H](C)O)C(=O)N[C@@H](Cc2c[nH]c3ccccc23)C(=O)N[C@@H](CCC(=O)O)C(=O)N[C@@H](C(C)C)C(=O)N[C@@H](Cc2c[nH]c3ccccc23)C(=O)NCC(=O)N[C@@H](CCCNC(=N)N)C(=O)N[C@@H](CCC(=O)O)C(=O)N1)C(=O)NCC(N)=O) [Peptide P2-64]”, the Result entry was “No binding”.

For the compound `C#CC[C@H](NC(=O)CN)C(=O)NCC(=O)NCC(=O)N[C@@H](Cc1c[nH]c2ccccc12)C(=O)N[C@@H](CO)C(=O)N[C@@H](Cc1c[nH]cn1)C(=O)N[C@@H](Cc1ccccc1)C(=O)N[C@@H](CC(N)=O)C(=O)N[C@@H](CC(=O)O)C(=O)N[C@@H](CS)C(=O)N1CCC[C@H]1C(=O)N[C@@H](CC(=O)O)C(N)=O` [TGFf-13] (H-G[Pra]GGWSHFNDCPD-NH2), the KD entry is “No binding”.

Consider “H2N-GDPKTWEVWGREELQ-GG-Par-G-CONH2 (H-GDPKTWEVWGREELQGG[Pra]G-NH2; lactam 4-13; SMILES C#CC[C@H](NC(=O)CNC(=O)CNC(=O)[C@H](CCC(N)=O)NC(=O)[C@H](CC(C)C)NC(=O)[C@@H]1CCC(=O)NCCCC[C@H](NC(=O)[C@@H]2CCCN2C(=O)[C@H](CC(=O)O)NC(=O)CN)C(=O)N[C@@H]([C@@H](C)O)C(=O)N[C@@H](Cc2c[nH]c3ccccc23)C(=O)N[C@@H](CCC(=O)O)C(=O)N[C@@H](C(C)C)C(=O)N[C@@H](Cc2c[nH]c3ccccc23)C(=O)NCC(=O)N[C@@H](CCCNC(=N)N)C(=O)N[C@@H](CCC(=O)O)C(=O)N1)C(=O)NCC(N)=O) [Peptide P2-60]”, for which the Result result is listed as “No binding”.

For the compound “H2N-GDP-Dap-TWEVWGREELQ-GG-Par-G-CONH2 (H-GDP[Dap]TWEVWGREELQGG[Pra]G-NH2; lactam 4-13) [Peptide P2-63]”, the Result entry is “No binding”.

On to “H2N-DPCTWEVWARECLQ-GG-Par-G-CONH2 [Peptide P2-41]”, for which the “KD/P2 KD” value is reported as “NS at 100 μM”.

With `C#CC[C@H](NC(=O)CN)C(=O)NCC(=O)NCC(=O)N[C@@H](CSCNC(C)=O)C(=O)N[C@@H](Cc1ccccc1)C(=O)N[C@@H](Cc1c[nH]cn1)C(=O)NCC(=O)N[C@H](C(=O)N[C@@H](CS)C(=O)N[C@@H](CCCNC(=N)N)C(=O)N[C@@H](Cc1ccccc1)C(=O)N[C@H](C(N)=O)C(C)C)[C@@H](C)O` [TGFf-10] (H-G[Pra]GGC(Acm)FHGTCRFV-NH2), the KD result is on record as “No binding”.

Regarding `COc1ccc2[nH]cc(C[C@@H]3NC(=O)[C@H](C(C)C)NC(=O)[C@H](CCC(=O)O)NC(=O)[C@H](C4Cc5ccccc5C4)NC(=O)[C@H]([C@@H](C)O)NC(=O)[C@@H](NC(=O)[C@@H]4CCCN4C(=O)[C@H](CC(=O)O)NC(C)=O)CSSC[C@@H](C(=O)N[C@@H](CC(C)C)C(=O)N[C@@H](CCC(N)=O)C(=O)NCC(=O)NCC(=O)N[C@@H](CCCCNC(=O)CCOCCOCCOCCOCCOCCNC(=O)CCC(=O)N4Cc5ccccc5C#Cc5ccccc54)C(N)=O)NC(=O)[C@H](CCC(=O)O)NC(=O)[C@H](CCCNC(=N)N)NC(=O)CNC3=O)c2c1` [Peptide P2-102] (Ac-DPCT[Igl]EV[Trp(5-OMe)]GRECLQGGK([PEG5-Suc-DBCO])-NH2; disulfide 3-12), the “binding of free peptide to EGFR by SPR, in words” value is “improved affinity relative to the parent peptide”.

As for “H2N-GDPDTWEVWGRE-Dap-LQ-GG-Par-G-CONH2 (H-GDPDTWEVWGRE[Dap]LQGG[Pra]G-NH2; lactam 4-13) [Peptide P2-66]”, the Result entry is “No binding”.

Turning to “H2N-GDPDTWEVWGRE-Orn-LQ-GG-Par-G-CONH2 (H-GDPDTWEVWGRE[Orn]LQGG[Pra]G-NH2; lactam 4-13; SMILES C#CC[C@H](NC(=O)CNC(=O)CNC(=O)[C@H](CCC(N)=O)NC(=O)[C@H](CC(C)C)NC(=O)[C@@H]1CCCNC(=O)C[C@H](NC(=O)[C@@H]2CCCN2C(=O)[C@H](CC(=O)O)NC(=O)CN)C(=O)N[C@@H]([C@@H](C)O)C(=O)N[C@@H](Cc2c[nH]c3ccccc23)C(=O)N[C@@H](CCC(=O)O)C(=O)N[C@@H](C(C)C)C(=O)N[C@@H](Cc2c[nH]c3ccccc23)C(=O)NCC(=O)N[C@@H](CCCNC(=N)N)C(=O)N[C@@H](CCC(=O)O)C(=O)N1)C(=O)NCC(N)=O) [Peptide P2-65]”, the Result entry is listed as “No binding”.

For the origin of these results see patent publication US20190029960A1, “Therapeutic Nanoparticles Having EGFR Ligands and Methods of Making and Using Same” (Pfizer Inc., priority 2016, published 2019).
